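How tested: cells in 96-well plates exposed to compound for 48 hours at five concentrations. The concentration for 50% growth inhibition is given as GI50.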 Active and inactive are the calls of the source. Cut-off read from the data, not from the text of the source: active = GI50 up to about 1.1 µM and inactive = higher.
How the values were obtained:
Experiment in all cases: NCI-60 cell line screen, 48 h
[1] = tested on: 786-0
[2] = tested on: A549
[3] = tested on: ACHN
[4] = tested on: BT-549
[5] = tested on: CAKI-1
[6] = tested on: COLO 205
[7] = tested on: DU-145
[8] = tested on: EKVX
[9] = tested on: HCC 2998
[10] = tested on: HCT-116
[11] = tested on: HCT-15
[12] = tested on: HOP-62
[13] = tested on: HT-29
[14] = tested on: IGROV-1
[15] = tested on: K562
[16] = tested on: KM12
[17] = tested on: LOX IMVI
[18] = tested on: M14
[19] = tested on: MCF7
[20] = tested on: MDA-MB-231
[21] = tested on: MDA-MB-435
[22] = tested on: MOLT-4
[23] = tested on: Malme-3M
[24] = tested on: NCI-H226
[25] = tested on: NCI-H23
[26] = tested on: NCI-H460
[27] = tested on: NCI/ADR-RES
[28] = tested on: OVCAR-3
[29] = tested on: OVCAR-4
[30] = tested on: OVCAR-5
[31] = tested on: OVCAR-8
[32] = tested on: PC-3
[33] = tested on: RPMI-8226
[34] = tested on: SF-268
[35] = tested on: SF-295
[36] = tested on: SF-539
[37] = tested on: SK-MEL-28
[38] = tested on: SK-MEL-2
[39] = tested on: SK-MEL-5
[40] = tested on: SK-OV-3
[41] = tested on: SNB-19
[42] = tested on: SR
[43] = tested on: SW-620
[44] = tested on: T47D
[45] = tested on: TK-10
[46] = tested on: U-251
[47] = tested on: UACC-257
[48] = tested on: UACC-62
[49] = tested on: UO-31
[50] = tested on: A498
[51] = tested on: CCRF-CEM
[52] = tested on: HL-60
[53] = tested on: HOP-92
[54] = tested on: MDA-N
[55] = tested on: RXF 393
[56] = tested on: SN12C
[57] = tested on: SNB-75

Compound: CC1CCN(C(C)C)P(=S)(Cc2ccccc2)O1 (configuration not stated)
- GI50 [1]: > 100 µM (inactive)
- GI50 [2]: > 100 µM (inactive)
- GI50 [3]: > 100 µM (inactive)
- GI50 [4]: 28.1 µM (inactive)
- GI50 [5]: > 100 µM (inactive)
- GI50 [6]: > 100 µM (inactive)
- GI50 [7]: > 100 µM (inactive)
- GI50 [8]: 75.3 µM (inactive)
- GI50 [9]: 83.9 µM (inactive)
- GI50 [10]: 59.6 µM (inactive)
- GI50 [11]: > 100 µM
- GI50 [12]: > 100 µM (inactive)
- GI50 [13]: > 100 µM (inactive)
- GI50 [14]: > 100 µM (inactive)
- GI50 [15]: 70.1 µM (inactive)
- GI50 [16]: > 100 µM (inactive)
- GI50 [17]: > 100 µM (inactive)
- GI50 [18]: > 100 µM (inactive)
- GI50 [19]: > 100 µM (inactive)
- GI50 [20]: > 100 µM (inactive)
- GI50 [21]: > 100 µM (inactive)
- GI50 [22]: > 100 µM (inactive)
- GI50 [23]: > 100 µM (inactive)
- GI50 [24]: > 100 µM (inactive)
- GI50 [25]: 92.9 µM (inactive)
- GI50 [26]: > 100 µM (inactive)
- GI50 [27]: > 100 µM (inactive)
- GI50 [28]: 34.4 µM (inactive)
- GI50 [29]: 84.3 µM (inactive)
- GI50 [30]: > 100 µM (inactive)
- GI50 [31]: > 100 µM (inactive)
- GI50 [32]: 55 µM (inactive)
- GI50 [33]: 99.8 µM (inactive)
- GI50 [34]: > 100 µM (inactive)
- GI50 [35]: 34 µM (inactive)
- GI50 [36]: > 100 µM (inactive)
- GI50 [37]: 13.6 µM (inactive)
- GI50 [38]: 44.3 µM (inactive)
- GI50 [39]: > 100 µM (inactive)
- GI50 [40]: > 100 µM (inactive)
- GI50 [41]: > 100 µM (inactive)
- GI50 [42]: > 100 µM (inactive)
- GI50 [43]: 7.93 µM (inactive)
- GI50 [44]: 11.2 µM (inactive)
- GI50 [45]: 75 µM (inactive)
- GI50 [46]: > 100 µM (inactive)
- GI50 [47]: 97.3 µM (inactive)
- GI50 [48]: 16.7 µM (inactive)
- GI50 [49]: > 100 µM (inactive)

Compound: C[Si](C)(N[Si](C)(C)OCCc1ccccc1)OCCc1ccccc1
- GI50 [1]: > 100 µM (inactive)
- GI50 [50]: > 100 µM (inactive)
- GI50 [3]: > 100 µM (inactive)
- GI50 [4]: > 100 µM (inactive)
- GI50 [5]: > 100 µM (inactive)
- GI50 [51]: > 100 µM (inactive)
- GI50 [7]: > 100 µM (inactive)
- GI50 [8]: > 100 µM (inactive)
- GI50 [9]: > 100 µM (inactive)
- GI50 [10]: > 100 µM (inactive)
- GI50 [11]: > 100 µM
- GI50 [52]: > 100 µM (inactive)
- GI50 [12]: > 100 µM (inactive)
- GI50 [53]: > 100 µM (inactive)
- GI50 [13]: > 100 µM (inactive)
- GI50 [14]: > 100 µM (inactive)
- GI50 [16]: > 100 µM (inactive)
- GI50 [17]: > 100 µM (inactive)
- GI50 [18]: > 100 µM (inactive)
- GI50 [19]: > 100 µM (inactive)
- GI50 [21]: > 100 µM (inactive)
- GI50 [54]: > 100 µM (inactive)
- GI50 [24]: > 100 µM (inactive)
- GI50 [25]: > 100 µM (inactive)
- GI50 [26]: > 100 µM (inactive)
- GI50 [27]: > 100 µM (inactive)
- GI50 [28]: > 100 µM (inactive)
- GI50 [29]: > 100 µM (inactive)
- GI50 [30]: > 100 µM (inactive)
- GI50 [31]: > 100 µM (inactive)
- GI50 [32]: > 100 µM (inactive)
- GI50 [33]: > 100 µM (inactive)
- GI50 [55]: > 100 µM (inactive)
- GI50 [35]: > 100 µM (inactive)
- GI50 [37]: > 100 µM (inactive)
- GI50 [38]: > 100 µM (inactive)
- GI50 [39]: > 100 µM (inactive)
- GI50 [40]: > 100 µM (inactive)
- GI50 [56]: > 100 µM (inactive)
- GI50 [41]: > 100 µM (inactive)
- GI50 [57]: > 100 µM (inactive)
- GI50 [43]: > 100 µM (inactive)
- GI50 [44]: > 100 µM (inactive)
- GI50 [45]: > 100 µM (inactive)
- GI50 [46]: > 100 µM (inactive)
- GI50 [47]: > 100 µM (inactive)
- GI50 [48]: > 100 µM (inactive)
- GI50 [49]: > 100 µM (inactive)
